Laboratory results taken from the NIST ThermoML archive (doi:10.1016/j.jct.2011.08.016).

Assay: xn = mol fraction of the nth substance listed
Conditions: Liquid, Vibrating tube method

CCCCCCCCCC [decane] + CCCCCCC
Conditions | mass density [kg/m3]
353.08 K, 19000 kPa, x2 = 0.777 | 668.89
353.08 K, 20000 kPa, x2 = 0.5219 | 683.14
353.08 K, 20000 kPa, x2 = 0.777 | 669.88
353.08 K, 21000 kPa, x2 = 0.5219 | 684.06
353.08 K, 21000 kPa, x2 = 0.777 | 670.85
353.08 K, 22000 kPa, x2 = 0.5219 | 684.96
353.08 K, 22000 kPa, x2 = 0.777 | 671.79
353.08 K, 23000 kPa, x2 = 0.5219 | 685.84
353.08 K, 23000 kPa, x2 = 0.777 | 672.72
353.08 K, 24000 kPa, x2 = 0.5219 | 686.7
353.08 K, 24000 kPa, x2 = 0.777 | 673.63
353.08 K, 25000 kPa, x2 = 0.5219 | 687.54
353.08 K, 25000 kPa, x2 = 0.777 | 674.52
353.09 K, 1000 kPa, x2 = 0.2594 | 674.78
353.09 K, 2000 kPa, x2 = 0.2594 | 675.91
353.09 K, 3000 kPa, x2 = 0.2594 | 677.03
353.09 K, 4000 kPa, x2 = 0.2594 | 678.12
353.09 K, 5000 kPa, x2 = 0.2594 | 679.23
353.09 K, 6000 kPa, x2 = 0.2594 | 680.3
353.09 K, 7000 kPa, x2 = 0.2594 | 681.37
353.09 K, 8000 kPa, x2 = 0.2594 | 682.43
353.09 K, 9000 kPa, x2 = 0.2594 | 683.51
353.09 K, 10000 kPa, x2 = 0.2594 | 684.56
353.09 K, 11000 kPa, x2 = 0.2594 | 685.6
353.09 K, 12000 kPa, x2 = 0.2594 | 686.61
353.09 K, 13000 kPa, x2 = 0.2594 | 687.61
353.09 K, 14000 kPa, x2 = 0.2594 | 688.6
353.09 K, 15000 kPa, x2 = 0.2594 | 689.58
353.09 K, 16000 kPa, x2 = 0.2594 | 690.55
353.09 K, 17000 kPa, x2 = 0.2594 | 691.5
353.09 K, 18000 kPa, x2 = 0.2594 | 692.42
353.09 K, 19000 kPa, x2 = 0.2594 | 693.33
353.09 K, 20000 kPa, x2 = 0.2594 | 694.24
353.09 K, 21000 kPa, x2 = 0.2594 | 695.13
353.09 K, 22000 kPa, x2 = 0.2594 | 695.95
353.09 K, 23000 kPa, x2 = 0.2594 | 696.8
353.09 K, 24000 kPa, x2 = 0.2594 | 697.62
353.09 K, 25000 kPa, x2 = 0.2594 | 698.42
353.12 K, 1000 kPa, x2 = 0.952 | 636.17
353.12 K, 2000 kPa, x2 = 0.952 | 637.58
353.12 K, 3000 kPa, x2 = 0.952 | 638.96
353.12 K, 4000 kPa, x2 = 0.952 | 640.34
353.12 K, 5000 kPa, x2 = 0.952 | 641.71
353.12 K, 6000 kPa, x2 = 0.952 | 643.05
353.12 K, 7000 kPa, x2 = 0.952 | 644.36
353.12 K, 8000 kPa, x2 = 0.952 | 645.65
353.12 K, 9000 kPa, x2 = 0.952 | 646.91
353.12 K, 10000 kPa, x2 = 0.952 | 648.14
353.12 K, 11000 kPa, x2 = 0.952 | 649.36
353.12 K, 12000 kPa, x2 = 0.952 | 650.55
353.12 K, 13000 kPa, x2 = 0.952 | 651.72
353.12 K, 14000 kPa, x2 = 0.952 | 652.87
353.12 K, 15000 kPa, x2 = 0.952 | 654
353.12 K, 16000 kPa, x2 = 0.952 | 655.12
353.12 K, 17000 kPa, x2 = 0.952 | 656.22
353.12 K, 18000 kPa, x2 = 0.952 | 657.29
353.12 K, 19000 kPa, x2 = 0.952 | 658.35
353.12 K, 20000 kPa, x2 = 0.952 | 659.4
353.12 K, 21000 kPa, x2 = 0.952 | 660.42
353.12 K, 22000 kPa, x2 = 0.952 | 661.43
353.12 K, 23000 kPa, x2 = 0.952 | 662.41
353.12 K, 24000 kPa, x2 = 0.952 | 663.35
353.12 K, 25000 kPa, x2 = 0.952 | 664.3
363.02 K, 1000 kPa, x2 = 0.5219 | 654.13
363.02 K, 1000 kPa, x2 = 0.777 | 639
363.02 K, 2000 kPa, x2 = 0.5219 | 655.44
363.02 K, 2000 kPa, x2 = 0.777 | 640.47
363.02 K, 3000 kPa, x2 = 0.5219 | 656.74
363.02 K, 3000 kPa, x2 = 0.777 | 641.89
363.02 K, 4000 kPa, x2 = 0.5219 | 657.94
363.02 K, 4000 kPa, x2 = 0.777 | 643.28
363.02 K, 5000 kPa, x2 = 0.5219 | 659.19
363.02 K, 5000 kPa, x2 = 0.777 | 644.65
363.02 K, 6000 kPa, x2 = 0.5219 | 660.44
363.02 K, 6000 kPa, x2 = 0.777 | 646
363.02 K, 7000 kPa, x2 = 0.5219 | 661.67
363.02 K, 7000 kPa, x2 = 0.777 | 647.32
363.02 K, 8000 kPa, x2 = 0.5219 | 662.86
363.02 K, 8000 kPa, x2 = 0.777 | 648.61
363.02 K, 9000 kPa, x2 = 0.5219 | 664.05
363.02 K, 9000 kPa, x2 = 0.777 | 649.89
363.02 K, 10000 kPa, x2 = 0.5219 | 665.24
363.02 K, 10000 kPa, x2 = 0.777 | 651.15
363.02 K, 11000 kPa, x2 = 0.5219 | 666.41
363.02 K, 11000 kPa, x2 = 0.777 | 652.39
363.02 K, 12000 kPa, x2 = 0.5219 | 667.56
363.02 K, 12000 kPa, x2 = 0.777 | 653.61
363.02 K, 13000 kPa, x2 = 0.5219 | 668.7
363.02 K, 13000 kPa, x2 = 0.777 | 654.81
363.02 K, 14000 kPa, x2 = 0.5219 | 669.81
363.02 K, 14000 kPa, x2 = 0.777 | 655.99
363.02 K, 15000 kPa, x2 = 0.5219 | 670.91
363.02 K, 15000 kPa, x2 = 0.777 | 657.15
363.02 K, 16000 kPa, x2 = 0.5219 | 671.98
